From paper PMC10385824, “Antiproliferative and Tubulin-Destabilising Effects of 3-(Prop-1-en-2-yl)azetidin-2-Ones and Related Compounds in MCF-7 and MDA-MB-231 Breast Cancer Cells” (Pharmaceuticals, 2023)
Read-outs that look alike come from different tables or passages of the source.

Legend:
[1] = test system: MCF-7 human breast cancer cells; conditions: for antiproliferative activity in words: MCF-7
Experimental: All biochemical assays were performed in triplicate for the determination of mean values reported. The human breast carcinoma cell line MCF-7 was purchased from the European Collection of Animal Cell Cultures (ECACC) and was cultured in Eagle’s minimum essential medium with 10% fetal bovine serum, 2 mM L-glutamine and 100 μg/mL penicillin/streptomycin. The medium was supplemented with 1% non-essential amino acids. […] All cells were sub-cultured 3 times/week by trypsinisation.
Cells were seeded at a density of 5 × 10^3 cells/well (MCF-7) in triplicate in 96-well plates. […] Cell proliferation for MCF-7 and MDA-MB-231 cells was analysed using the Alamar Blue assay (Invitrogen Corp.). […] Experiments were performed in triplicate on at least three separate occasions.

[2] = test system: MCF-7 human breast cancer cells; assay: cells
[3] = HPLC stability study in plasma; assay type: in vitro ADME, human; conditions: human, buffered plasma (plasma:buffer 1:9); Plasma; study over 264 h
Experimental: Analytical high-performance liquid chromatography (HPLC) stability studies were performed as follows using Symmetry® column (C18, 5 µm, 4.6 × 150 mm), Waters 2487 Dual Wavelength Absorbance detector, Waters 1525 binary HPLC pump and Waters 717 plus Autosampler (Waters Corporation, Milford, MA, USA) with detection at 254 nm as previously described. Samples were analysed using mobile phase acetonitrile (80%): water (20%), flow rate (1 mL/min) over 10 min. […] First, 30 µL of compound stock solution was diluted with appropriate buffer (1 mL); sample was shaken and injected immediately. Samples were withdrawn and analysed at the following time points: t = 0 min, 5 min, 30 min, 60 min, 90 min, 120 min, 24 h and 48 h. (ii) Thermal stability: Compound stock solution (1 mL) was placed in a glass vial on a heating block for 4 h at 60 °C. The sample was then cooled, diluted (acetonitrile) and analysed. (ii) Oxidising conditions: H2O2 (3%, 0.2 mL) was added to compound stock solution (0.8 mL). The vial was vortexed and retained at 20 °C, and the sample was analysed at 60, 120 180 and 240 min. (iv) Acidic conditions: HCl (0.1 M, 0.2 mL) was added to stock solutions (0.8 mL). The vial was mixed by vortex and retained at 20 °C. A sample was neutralised with NaOH (0.1 M, 0.2 mL) at 60, 120, 180 and 240 min, followed by HPLC analysis. (v) Alkaline conditions: NaOH (0.1 M, 0.2 mL) was added to stock solution (0.8 mL) of the compound in a vial. The vial was mixed by vortex and retained at 20 °C. A sample was neutralised with HCl (0.1 M, 0.2 mL) at 60, 120, 180 and 240 min followed by HPLC analysis. (vi) Photostability study: Compounds (stock solution, 1 mL) were placed in a vial, exposed to UV light for 4 h and then analysed by HPLC as above. Stability studies in plasma: Approval for this study was obtained from the School of Pharmacy and Pharmaceutical Sciences Trinity College Dublin Research Ethics Committee (2020–06-01-MS). Following informed consent, blood was withdrawn from healthy volunteers, and plasma was obtained by centrifugation and kept at −20 °C until further use. […] A sample (250 µL) was then added to the Eppendorf tube containing ZnSO4.7H2O solution (500 µL) (2% w/v ZnSO4 solution in acetonitrile:water, 1:1). The samples were centrifuged (10,000 rpm, 3 min), filtered (0.2 micron filter) and analysed by HPLC as above. Further samples were taken at one-hour intervals.

[4] = HPLC stability under degradation conditions (acid, alkali, heat, light, oxidation); conditions: for remaining at 4 h / remaining at 312 h, 0.5 mg/mL / remaining at 5 h, 0.5 mg/mL: % Remaining; for remaining at 6 h: 30% H2O2 added to stock solution, Hydrogen peroxide (30 % H2O2, 0.2 mL), 20 °C; for remaining at 312 h, 0.5 mg/mL: solution in acetonitrile:water 80:20, daylight, Daylight (acetonitrile (80%):water (20%) 13 days); for remaining at 5 h, 0.5 mg/mL: stock solution in acetonitrile:water 80:20, heated, 80 °C (heating block, 5 h)
Experimental: Samples were analysed using mobile phase acetonitrile (80%): water (20%), flow rate (1 mL/min) over 10 min. […] First, 30 µL of compound stock solution was diluted with appropriate buffer (1 mL); sample was shaken and injected immediately. […] (ii) Thermal stability: Compound stock solution (1 mL) was placed in a glass vial on a heating block for 4 h at 60 °C. The sample was then cooled, diluted (acetonitrile) and analysed. (ii) Oxidising conditions: H2O2 (3%, 0.2 mL) was added to compound stock solution (0.8 mL).
a All samples were analysed using acetonitrile (80%):water (20%) as the mobile phase over
10 min and a flow rate of 1 mL/min.

[5] = HPLC stability study in phosphate buffers; assay type: physicochemical; conditions: for compound remaining: all pH values (4, 7.4, 9), after 11 days; for stability in words: over the pH range studied; for remaining at 264 h, 14.6 µg/mL: study over 264 h
[6] = test system: MDA-MB-231 human breast cancer cells; assay: Alamar Blue cell viability (antiproliferative) assay; assay type: cell-based
[7] = test system: microtubule network in MCF-7 cells; assay: Immunofluorescence confocal microscopy; assay type: cell-based, human; conditions: 16 h
Experimental: CA-4 and β-lactam 9q depolymerise the microtubule network in MCF-7 cells. […] After 16 h, the cells were fixed in 4% paraformaldehyde and stained with mouse monoclonal anti-α-tubulin−FITC antibody (clone DM1A) (green), Alexa Fluor 488 dye, and counterstained with DAPI (blue). The confocal images were obtained by Leica SP8 confocal microscopy with Leica application suite X software. Representative confocal micrograph images of three separate experiments are shown above [scale bar: […]].
The effects of β-lactam 9q on MCF-7 cytoskeleton were determined using confocal microscopy as previously described. MCF-7 cells were seeded at 1 × 10^5 cells/mL in glass slides with eight chambers (BD Biosciences, San Jose, CA, USA). […] Following treatment, cells were gently washed in PBS, fixed for 20 min with 4% paraformaldehyde in PBS and permeabilised in 0.5% Triton X-100. The cells were then washed with PBS-T (PBS containing 0.1% Tween), blocked in 5% bovine serum albumin diluted in PBS-T and incubated with mouse monoclonal anti-α-tubulin-FITC antibody (clone DM1A) (Sigma, Milwaulkee, WI, USA) (1:100) for 2 h at 20 °C. The cells were washed again with PBS-T and incubated with Alexa Fluor 488 dye (1:450) for 1 h at 20 °C. Following washes in PBST, the cells were mounted in Ultra Cruz Mounting Media (Santa Cruz Biotechnology, Santa Cruz, CA, USA), which contained 4,6-diamino-2-phenolindol dihydrochloride (DAPI). The immunofluorescence cell images were captured by Leica SP8 confocal microscopy and analysed with Leica application suite X software. Microscopy experiments were performed on three independent occasions, and the images for these experiments were obtained on the same day using identical conditions.

[8] = test system: purified bovine brain tubulin; assay: Tubulin polymerization assay (light scattering, BK006 kit); assay type: biochemical; conditions: compound at 10 μM; for Vmax: 37 °C, 340 nm; for Fold Reduction in Vmax: relative to vehicle
Experimental: Tubulin polymerization was monitored using the BK006 kit obtained from Cytoskeleton Inc. (Denver, CO, USA). The values reported represent the average values determined from two independent assays. Purified bovine brain tubulin (>99%, 3 mg/mL) in buffer containing PIPES (80 mM, pH 6.9), EGTA (0.5 mM), MgCl2 (2 mM), GTP (1 mM) and glycerol (10%) was incubated at 37 °C in vehicle (1% DMSO or EtOH (v/v) in dH2O) or with compounds 9h, 9q, 9s, 10h, 10p, 10r, 11h, 11p, 11r, 17f (all at 10 µM concentration); CA-4 (10 μM) was used as control. In this assay, light scattering is related to the concentration of polymerised microtubules produced. Tubulin assembly was monitored turbidimetrically at 340 nm at 37 °C in a Spectramax 340 PC spectrophotometer (Molecular Devices, Sunnyvale, CA, USA).

[9] = test system: NCI 60 human cancer cell line panel; assay: NCI 60 cell line screen (SRB), panel values; conditions: for CC50: read-out: Mean LC50; for IC (TGI (total growth inhibition)): read-out: Mean TGI
MDA-MB-231/ATCC = assay: NCI-60 SRB screen, breast cancer; assay type: cell-based, human; conditions: Homo sapiens; MDA-MB-231; obtained from NCI; five concentrations 0.01–100 μM; 48 h; read-out: Antiproliferative Activity IC50
[10] = MCF7, 72 h, read-out: Antiproliferative Activity IC50, MCF-7, 72 h, eight concentrations 1–50 μM, mean ± SEM, Table 2
[11] = 1M HCl added to stock solution, 1M HCl (0.1 mL, 20 °C, 4h)
[12] = 1M HCl added to stock solution, 1M HCl (0.2 mL, 50 °C, 4h)
[13] = 1M NaOH added to stock solution, 1M NaOH (0.1 mL, 20 °C, 4h)
[14] = 1M NaOH added to stock solution, 1M NaOH (0.2 mL, 50 °C, 4h)
[15] = MCF7, read-out: Antiproliferative Activity IC50, MCF-7, eight concentrations 0.001–50 μM, mean ± SEM, Table 3
[16] = 72 h, eight concentrations 0.001-50 μM, mean ± SEM, read-out: Antiproliferative Activity IC50
[17] = Homo sapiens, 60 cell, read-out: Mean GI50, mean over all NCI 60 cell lines
[18] = read-out: Mean GI50, mean over all NCI 60 cell lines

| SMILES | antiproliferative activity in words [1] | melting point [°C] | IC50 [2, 10] [nM] | remaining at 264 h, 41.3 µg/mL [3] [%] | remaining at 4 h [4, 11] [%] | remaining at 4 h [4, 12] [%] | remaining at 6 h [4] [%] | remaining at 312 h, 0.5 mg/mL [4] [%] | remaining at 5 h, 0.5 mg/mL [4] [%] | remaining at 264 h, 14.6 µg/mL ([5]; phosphate buffer, pH 4.0) [%] | remaining at 264 h, 14.6 µg/mL ([5]; phosphate buffer, pH 7.4) [%] | remaining at 264 h, 14.6 µg/mL ([5]; phosphate buffer, pH 9.0) [%] | IC50 [2, 15] [nM] | other results |
| --- | --- | --- | --- | --- | --- | --- | --- | --- | --- | --- | --- | --- | --- | --- |
| C=C(C)C1C(=O)N(c2cc(OC)c(OC)c(OC)c2)C1c1ccc(SC)cc1 (centres unmarked) [9o, 4-(4-(Methylthio)phenyl)-3-(prop-1-en-2-yl)-1-(3,4,5-trimethoxyphenyl)azetidin-2-one] | sub-micromolar | 99 to 100 | 272000 ± 26400 | – | – | – | – | – | – | – | – | – | – | – |
| C=C(C)C1C(=O)N(c2ccc(OC)cc2)C1c1cc(OC)c(OC)c(OC)c1 (centres unmarked) [9v, 1-(4-Methoxyphenyl)-3-(prop-1-en-2-yl)-4-(3,4,5-trimethoxyphenyl)azetidin-2-one] | minimal | 128 to 130 | 1160 ± 120 | – | – | – | – | – | – | – | – | – | – | – |
| C=CCC1C(=O)N(c2cc(OC)c(OC)c(OC)c2)C1c1ccc(OC)c([N+](=O)[O-])c1 (centres unmarked) [10q, 3-Allyl-4-(4-methoxy-3-nitrophenyl)-1-(3,4,5-trimethoxyphenyl)azetidin-2-one] | – | 108 to 110 | – | 90 | 99.2 | 98.7 | 92 | 100 | 100 | 26 | 25 | 22 | 619 ± 70 | remaining at 4 h [4, 13]: 97.8%; remaining at 4 h [4, 14]: 97.8%; compound remaining [5]: 22–26%; stability in words [5]: poor stability |
| C=C(C)C1C(=O)N(c2cc(OC)c(OC)c(OC)c2)C1c1ccc(C)cc1 (centres unmarked) [9g, 4-p-Tolyl-1-(3,4,5-trimethoxyphenyl)-3-(prop-1-en-2-yl)azetidine-2-one] | sub-micromolar | 102 to 104 | – | – | – | – | – | – | – | – | – | – | – | IC50 [6, 16]: 246 ± 17 nM |
| C=C(C)C1C(=O)N(c2cc(OC)c(OC)c(OC)c2)C1c1ccc(Cl)cc1 (centres unmarked) [9b, 4-(4-Chlorophenyl)-1-(3,4,5-trimethoxyphenyl)-3-(prop-1-en-2-yl)azetidine-2-one] | sub-micromolar | 137 to 138 | 630 ± 70 | – | – | – | – | – | – | – | – | – | – | – |
| CC(=O)O[C@H]1C(=O)[C@@]2(C)[C@H]([C@H](OC(=O)c3ccccc3)[C@]3(O)C[C@H](OC(=O)[C@H](O)[C@@H](NC(=O)c4ccccc4)c4ccccc4)C(C)=C1C3(C)C)[C@]1(OC(C)=O)CO[C@@H]1C[C@@H]2O [paclitaxel] | – | – | – | – | – | – | – | – | – | – | – | – | – | effect on microtubule network [7]: induced the formation of microtubule bundles and pseudo-asters |
| C=CCC1C(=O)N(c2cc(OC)c(OC)c(OC)c2)C1c1ccc(OC)cc1 (centres unmarked) [10h, 3-Allyl-4-(4-methoxyphenyl)-1-(3,4,5-trimethoxyphenyl)azetidin-2-one] | – | – | – | 100 | 97.5 | 99.6 | 100 | 100 | 100 | 28 | 41 | 24 | 35 ± 5 | remaining at 4 h [4, 13]: 96%; Vmax [8]: 0.0056 mOD/min; Fold Reduction in Vmax [8]: 2.5; GI50 [9, 17]: < 91.2 nM; CC50 ([9]; Homo sapiens, 60 cell): 81300 nM; IC (TGI (total growth inhibition)) ([9]; Homo sapiens, 60 cell): 17400 nM; GI50 [9, 18]: 75.9 nM; compound remaining [5]: 24–41%; stability in words [5]: poor stability; IC50 (MDA-MB-231/ATCC): 120 nM |
| C=C(C)C1C(=O)N(c2ccc(SC)cc2)C1c1cc(OC)c(OC)c(OC)c1 (centres unmarked) [9t, 1-(4-(Methylthio)phenyl)-3-(prop-1-en-2-yl)-4-(3,4,5-trimethoxyphenyl)azetidin-2-one] | minimal | 113 to 115 | 131 ± 40 | – | – | – | – | – | – | – | – | – | – | – |
| C=C(C)C1C(=O)N(c2cc(OC)c(OC)c(OC)c2)C1c1ccc2ccccc2c1 (centres unmarked) [9n, 4-Naphthalen-2-yl-1-(3,4,5-trimethoxyphenyl)-3-(prop-1-en-2-yl)azetidin-2-one] | – | 123 to 124 | 78100 ± 5470 | – | – | – | – | – | – | – | – | – | – | fold more potent than the 1-naphthyl compound 9m ([1]; MCF-7 IC50 ratio): 58 fold; IC50 [6, 16]: 529 ± 80 nM; IC50 ([2]; MCF7, MCF-7): 139 nM |
| C=CCC1C(=O)N(c2cc(OC)c(OC)c(OC)c2)C1c1ccc(OC)c(N)c1 (centres unmarked) [10r, 3-Allyl-4-(3-amino-4-methoxyphenyl)-1-(3,4,5-trimethoxyphenyl)azetidin-2-one] | – | – | – | 97 | 91.8 | 92.2 | 8 | 93 | 100 | 96 | 99 | 83 | 35 ± 4 | remaining at 4 h [4, 14]: 83.1%; Vmax [8]: 0.0029 mOD/min; Fold Reduction in Vmax [8]: 3.4; GI50 [9, 17]: < 91.2 nM; CC50 ([9]; Homo sapiens, 60 cell): 79400 nM; IC (TGI (total growth inhibition)) ([9]; Homo sapiens, 60 cell): 53700 nM; GI50 [9, 18]: 85.1 nM; half-life at 14.6 µg/mL ([5]; phosphate buffer, pH range studied, medium not specified, read-out: half-life (t½) (converted)): > 24 h; IC50 ([6]; read-out: IC50): 35 nM; IC50 ([2]; MCF7, MCF-7): 10 to 33 nM; IC50 (MDA-MB-231/ATCC): 35.2 nM |
